One block for each compound: values may come before it.
Legend:
Type in all cases: biochemical
KDR = KDR (Homo sapiens, UniProt P35968); test: KDR enzyme assay, coupled enzyme assay; conditions: 300 μM ATP, 10 μM poly E4Y, 30 nM KDR, 37° C.
In short: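 Coupled enzyme (PK/LDH, NADH) assay with 30 nM KDR in 200 mM HEPES 7.5, 10 mM MgCl2, 25 mM NaCl, 1 mM DTT, 1.5% DMSO; 300 μM ATP, 10 μM poly E4Y. Compound at 30 μM final, preincubated ~10 min at 37 °C before ATP start; rates read over 5 min at 37 °C.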

c-Met = c-Met (Homo sapiens, UniProt P08581); test: Ki determination for the inhibition of c-Met, coupled enzyme system; conditions: 200 μM ATP, 10 μM polyGluTyr, 80 nM c-Met, 30° C.
Chain of c-Met (P08581 25-1390): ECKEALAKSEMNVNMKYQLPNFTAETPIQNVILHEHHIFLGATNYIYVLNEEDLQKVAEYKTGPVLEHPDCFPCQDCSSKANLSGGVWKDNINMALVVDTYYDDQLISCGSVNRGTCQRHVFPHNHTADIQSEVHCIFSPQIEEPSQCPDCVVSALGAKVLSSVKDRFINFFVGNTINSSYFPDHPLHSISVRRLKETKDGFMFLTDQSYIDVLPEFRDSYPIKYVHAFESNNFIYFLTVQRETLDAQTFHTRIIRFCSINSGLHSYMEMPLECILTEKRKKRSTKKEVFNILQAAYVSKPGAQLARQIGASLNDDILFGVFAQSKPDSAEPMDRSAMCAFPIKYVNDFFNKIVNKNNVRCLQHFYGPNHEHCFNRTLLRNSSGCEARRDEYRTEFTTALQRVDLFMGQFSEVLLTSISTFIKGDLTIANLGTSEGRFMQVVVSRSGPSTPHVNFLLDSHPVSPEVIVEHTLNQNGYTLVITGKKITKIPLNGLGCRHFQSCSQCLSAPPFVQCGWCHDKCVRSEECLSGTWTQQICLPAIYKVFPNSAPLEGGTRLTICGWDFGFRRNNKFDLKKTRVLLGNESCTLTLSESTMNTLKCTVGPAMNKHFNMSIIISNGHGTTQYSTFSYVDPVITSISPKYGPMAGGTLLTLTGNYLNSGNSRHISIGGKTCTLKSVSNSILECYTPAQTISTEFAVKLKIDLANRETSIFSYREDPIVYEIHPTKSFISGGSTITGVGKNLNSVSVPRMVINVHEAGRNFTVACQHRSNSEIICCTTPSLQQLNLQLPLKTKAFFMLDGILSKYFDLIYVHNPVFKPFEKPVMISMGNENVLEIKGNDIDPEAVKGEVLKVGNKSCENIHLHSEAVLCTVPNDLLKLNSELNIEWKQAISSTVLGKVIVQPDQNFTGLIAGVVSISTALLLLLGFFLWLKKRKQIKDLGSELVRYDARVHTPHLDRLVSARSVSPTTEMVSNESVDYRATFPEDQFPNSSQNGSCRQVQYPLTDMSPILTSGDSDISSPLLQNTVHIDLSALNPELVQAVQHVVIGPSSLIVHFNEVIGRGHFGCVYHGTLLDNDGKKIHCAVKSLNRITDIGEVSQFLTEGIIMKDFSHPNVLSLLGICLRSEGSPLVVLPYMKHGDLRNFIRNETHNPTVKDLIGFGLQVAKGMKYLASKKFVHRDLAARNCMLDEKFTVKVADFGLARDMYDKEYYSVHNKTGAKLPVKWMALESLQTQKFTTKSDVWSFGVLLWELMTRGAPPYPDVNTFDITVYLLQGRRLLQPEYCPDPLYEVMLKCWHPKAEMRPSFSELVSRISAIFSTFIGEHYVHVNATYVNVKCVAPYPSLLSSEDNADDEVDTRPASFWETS
In short: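 Coupled pyruvate kinase/lactate dehydrogenase NADH assay with 80 nM c-Met, 200 μM ATP, 10 μM polyGluTyr in pH 7.5 HEPES, 1.5% DMSO at 30° C. Compound (0.006–12.5 μM final, 12-point) preincubated 10 min; ATP started reaction, rates read over 10 min; Ki derived from rate versus inhibitor concentration.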

GSK-3β, (AA 1-420) = GSK-3β, (AA 1-420) (Homo sapiens, UniProt P49841); test: GSK-3 inhibition assay, coupled enzyme system; conditions: 20 μM ATP, 300 μM peptide, 20 nM GSK-3b, 30° C.; read-out: Ki values (GSK3)
Chain of GSK-3β, (AA 1-420) (P49841 whole entry, the tested form may be a part): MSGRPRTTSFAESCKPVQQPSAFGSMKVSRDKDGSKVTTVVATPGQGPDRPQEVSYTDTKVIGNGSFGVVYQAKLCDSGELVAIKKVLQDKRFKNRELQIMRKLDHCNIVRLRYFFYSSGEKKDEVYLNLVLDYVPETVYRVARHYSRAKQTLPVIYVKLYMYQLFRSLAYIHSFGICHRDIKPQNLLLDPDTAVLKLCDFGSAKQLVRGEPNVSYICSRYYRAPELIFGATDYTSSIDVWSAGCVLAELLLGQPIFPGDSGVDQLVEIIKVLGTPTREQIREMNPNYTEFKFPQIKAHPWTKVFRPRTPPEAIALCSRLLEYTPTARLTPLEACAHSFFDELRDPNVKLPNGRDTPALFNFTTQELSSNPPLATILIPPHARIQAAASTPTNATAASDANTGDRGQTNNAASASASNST
In short: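 Pyruvate kinase/lactate dehydrogenase-coupled NADH assay with 20 nM enzyme, 20 μM ATP and 300 μM peptide in HEPES pH 7.5, 1.5% DMSO, 30° C. Compound (0.002–30 μM, 12-point) preincubated 10 min before ATP start; rates over 10 min gave Ki.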

Chain of KDR (P35968 20-1356): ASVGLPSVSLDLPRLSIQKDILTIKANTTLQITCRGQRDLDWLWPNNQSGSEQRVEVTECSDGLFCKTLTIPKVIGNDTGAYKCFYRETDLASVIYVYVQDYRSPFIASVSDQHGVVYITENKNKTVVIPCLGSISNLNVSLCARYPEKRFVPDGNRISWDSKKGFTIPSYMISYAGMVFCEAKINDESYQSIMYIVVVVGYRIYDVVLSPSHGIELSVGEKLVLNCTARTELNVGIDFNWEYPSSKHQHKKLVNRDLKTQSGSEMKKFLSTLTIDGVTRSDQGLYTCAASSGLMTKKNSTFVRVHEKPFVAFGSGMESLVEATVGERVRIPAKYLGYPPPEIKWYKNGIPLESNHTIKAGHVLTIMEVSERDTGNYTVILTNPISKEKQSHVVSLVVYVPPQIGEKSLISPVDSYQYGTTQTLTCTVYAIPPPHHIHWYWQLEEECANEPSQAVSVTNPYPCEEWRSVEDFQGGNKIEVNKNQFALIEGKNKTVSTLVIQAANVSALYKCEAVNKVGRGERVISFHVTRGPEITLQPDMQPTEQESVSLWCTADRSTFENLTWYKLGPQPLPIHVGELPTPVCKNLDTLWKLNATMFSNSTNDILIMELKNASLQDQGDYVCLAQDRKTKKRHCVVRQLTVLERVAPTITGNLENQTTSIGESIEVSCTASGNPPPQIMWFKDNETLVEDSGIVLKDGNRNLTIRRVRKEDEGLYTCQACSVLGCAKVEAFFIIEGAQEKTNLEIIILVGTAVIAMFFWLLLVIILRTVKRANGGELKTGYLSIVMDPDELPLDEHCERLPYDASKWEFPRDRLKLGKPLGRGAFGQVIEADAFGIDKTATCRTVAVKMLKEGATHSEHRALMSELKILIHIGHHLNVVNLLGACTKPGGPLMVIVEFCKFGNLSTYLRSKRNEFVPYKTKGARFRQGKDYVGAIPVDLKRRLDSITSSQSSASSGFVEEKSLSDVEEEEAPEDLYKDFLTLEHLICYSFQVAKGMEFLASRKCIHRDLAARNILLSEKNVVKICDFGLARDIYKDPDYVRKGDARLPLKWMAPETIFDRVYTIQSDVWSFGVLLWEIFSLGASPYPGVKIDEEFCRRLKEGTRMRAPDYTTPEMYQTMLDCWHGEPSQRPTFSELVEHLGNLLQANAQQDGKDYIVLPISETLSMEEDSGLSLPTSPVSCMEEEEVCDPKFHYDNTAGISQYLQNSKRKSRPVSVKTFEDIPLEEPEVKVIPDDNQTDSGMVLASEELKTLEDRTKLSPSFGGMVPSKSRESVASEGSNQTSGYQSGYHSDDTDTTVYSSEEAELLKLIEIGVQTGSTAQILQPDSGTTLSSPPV

Compound: c1cnc2[nH]cc(-c3oncc3C3CCCCC3)c2c1 [Compound 47, 3-(4-Cyclohexyl-isoxazol-5-yl)-1H-pyrrolo[2,3-b]pyridine]
Ki (KDR): 1000 to 12500 nM | Ki (c-Met): 1000 to 12500 nM | Ki (GSK-3β, (AA 1-420)): 1000 to 12500 nM

Compound: Fc1cccc(-c2cnoc2-c2c[nH]c3ncc(-c4ccncc4)cc23)c1F [Compound 57, 3-[4-(2,3-Difluoro-phenyl)-isoxazol-5-yl]-5-pyridin-4-yl-1H-pyrrolo[2,3-b]pyridine]
Ki (KDR): 200 to 1000 nM | Ki (c-Met): < 200 nM | Ki (GSK-3β, (AA 1-420)): 200 to 1000 nM

Compound: COC(=O)c1cnc2[nH]cc(-c3oncc3-c3cccc(F)c3F)c2c1 [Compound 105, 3-[4-(2,3-Difluoro-phenyl)-isoxazol-5-yl]-1H-pyrrolo[2,3-b]pyridine-5-carboxylic acid methyl ester]
Ki (KDR): 200 to 1000 nM | Ki (c-Met): < 200 nM | Ki (GSK-3β, (AA 1-420)): 200 to 1000 nM

Compound: Clc1cccc(-c2cnoc2-c2c[nH]c3ncccc23)c1Cl [Compound 2, 3-[4-(2,3-Dichloro-phenyl)-isoxazol-5-yl]-1H-pyrrolo[2,3-b]pyridine]
Ki (KDR): 200 to 1000 nM | Ki (c-Met): < 200 nM | Ki (GSK-3β, (AA 1-420)): 1000 to 12500 nM

Compound: Fc1cccc(-n2cnnc2-c2c[nH]c3ncc(-c4cccnc4)cc23)c1F [Compound 113, 3-[4-(2,3-Difluoro-phenyl)-4H-[1,2,4]triazol-3-yl]-5-pyridin-3-yl-1H-pyrrolo[2,3-b]pyridine]
Ki (KDR): 200 to 1000 nM | Ki (c-Met): < 200 nM | Ki (GSK-3β, (AA 1-420)): < 200 nM

Compound: Fc1cccc(-n2cnnc2-c2c[nH]c3ncc(-c4ccc(N5CCC[C@H]5CN5CCCC5)nc4)cc23)c1F [Compound 115, 3-[4-(2,3-Difluoro-phenyl)-4H-[1,2,4]triazol-3-yl]-5-[6-(2-pyrrolidin-1-ylmethyl-pyrrolidin-1-yl)-pyridin-3-yl]-1H-pyrrolo[2,3-b]pyridine]
Ki (KDR): 1000 to 12500 nM | Ki (c-Met): < 200 nM | Ki (GSK-3β, (AA 1-420)): 200 to 1000 nM

Compound: Fc1cccc(-c2cnoc2-c2c[nH]c3ncc(C4=CCC(N5CCOCC5)CC4)cc23)c1F (stereo not drawn) [Compound 139, 3-[4-(2,3-Difluoro-phenyl)-isoxazol-5-yl]-5-(4-morpholin-4-yl-cyclohex-1-enyl)-1H-pyrrolo[2,3-b]pyridine]
Ki (KDR): 200 to 1000 nM | Ki (c-Met): < 200 nM | Ki (GSK-3β, (AA 1-420)): < 200 nM

Compound: CN(C)CCNc1ccc(-c2cnc3[nH]cc(-c4nncn4-c4cccc(F)c4F)c3c2)cn1 [Compound 119, N′-(5-{3-[4-(2,3-Difluoro-phenyl)-4H-[1,2,4]triazol-3-yl]-1H-pyrrolo[2,3-b]pyridin-5-yl}-pyridin-2-yl)-N,N-dimethyl-ethane-1,2-diamine]
Ki (KDR): 200 to 1000 nM | Ki (c-Met): < 200 nM | Ki (GSK-3β, (AA 1-420)): 200 to 1000 nM

Compound: Fc1cccc(-c2cnoc2-c2c[nH]c3ncc(C4=CCC(NCc5ccccc5)CC4)cc23)c1F (stereo not drawn) [Compound 136, Benzyl-(4-{3-[4-(2,3-difluoro-phenyl)-isoxazol-5-yl]-1H-pyrrolo[2,3-b]pyridin-5-yl}-cyclohex-3-enyl)-amine]
Ki (KDR): 200 to 1000 nM | Ki (c-Met): < 200 nM | Ki (GSK-3β, (AA 1-420)): 200 to 1000 nM

Compound: Fc1cccc(-c2cnoc2-c2c[nH]c3ncc(-c4ncccn4)cc23)c1F [Compound 75, 3-[4-(2,3-Difluoro-phenyl)-isoxazol-5-yl]-5-pyrimidin-2-yl-1H-pyrrolo[2,3-b]pyridine]
Ki (KDR): 200 to 1000 nM | Ki (c-Met): < 200 nM | Ki (GSK-3β, (AA 1-420)): 1000 to 12500 nM

Compound: CN1CCN(c2ccc(-c3cnc4[nH]cc(-c5nncn5-c5cccc(F)c5F)c4c3)cn2)CC1 [Compound 112]
Ki (KDR): 200 to 1000 nM | Ki (c-Met): < 200 nM | Ki (GSK-3β, (AA 1-420)): 200 to 1000 nM

Compound: CN(C)c1ccc(-c2cnc3[nH]cc(-c4nncn4-c4cccc(F)c4F)c3c2)cc1 [Compound 106, (4-{3-[4-(2,3-Difluoro-phenyl)-4H-[1,2,4]triazol-3-yl]-1H-pyrrolo[2,3-b]pyridin-5-yl}-phenyl)-dimethyl-amine]
Ki (KDR): 200 to 1000 nM | Ki (c-Met): < 200 nM | Ki (GSK-3β, (AA 1-420)): < 200 nM

Compound: Fc1c(Cl)cccc1-c1cnoc1-c1c[nH]c2ncccc12 [Compound 42, 3-[4-(3-Chloro-2-fluoro-phenyl)-isoxazol-5-yl]-1H-pyrrolo[2,3-b]pyridine]
Ki (KDR): 200 to 1000 nM | Ki (c-Met): < 200 nM | Ki (GSK-3β, (AA 1-420)): 1000 to 12500 nM

Compound: N#CCC(=O)N1CCC(c2cnc3[nH]cc(-c4oncc4-c4cccc(F)c4F)c3c2)CC1 [Compound 64, 3-(4-{3-[4-(2,3-Difluoro-phenyl)-isoxazol-5-yl]-1H-pyrrolo[2,3-b]pyridin-5-yl}-piperidin-1-yl)-3-oxo-propionitrile]
Ki (KDR): 1000 to 12500 nM | Ki (c-Met): < 200 nM | Ki (GSK-3β, (AA 1-420)): < 200 nM

Compound: Fc1cccc(-c2cnoc2-c2c[nH]c3ncc(-c4cccnc4)cc23)c1F [Compound 59, 3-[4-(2,3-Difluoro-phenyl)-isoxazol-5-yl]-5-pyridin-3-yl-1H-pyrrolo[2,3-b]pyridine]
Ki (KDR): 200 to 1000 nM | Ki (c-Met): < 200 nM | Ki (GSK-3β, (AA 1-420)): 200 to 1000 nM

Compound: Fc1cccc(-n2cnnc2-c2c[nH]c3ncc(-c4ccncc4)cc23)c1F [Compound 114, 3-[4-(2,3-Difluoro-phenyl)-4H-[1,2,4]triazol-3-yl]-5-pyridin-4-yl-1H-pyrrolo[2,3-b]pyridine]
Ki (KDR): 200 to 1000 nM | Ki (c-Met): < 200 nM | Ki (GSK-3β, (AA 1-420)): < 200 nM

Further lines, results first:

Ki (KDR): < 200 nM | Ki (c-Met): < 200 nM | Ki (GSK-3β, (AA 1-420)): 200 to 1000 nM
Compound: Nc1ccnc(-c2cnc3[nH]cc(-c4oncc4-c4cccc(F)c4F)c3c2)c1 [Compound 83, 2-{3-[4-(2,3-Difluoro-phenyl)-isoxazol-5-yl]-1H-pyrrolo [2,3-b]pyridin-5-yl}-pyridin-4-ylamine]

Ki (KDR): 200 to 1000 nM | Ki (c-Met): < 200 nM | Ki (GSK-3β, (AA 1-420)): 1000 to 12500 nM
Compound: Oc1cccc(-c2cnc3[nH]cc(-c4oncc4-c4cccc(F)c4F)c3c2)c1 [Compound 87, 3-{3-[4-(2,3-Difluoro-phenyl)-isoxazol-5-yl]-1H-pyrrolo [2,3-b]pyridin-5-yl}-phenol]

Ki (KDR): < 200 nM | Ki (c-Met): < 200 nM | Ki (GSK-3β, (AA 1-420)): < 200 nM
Compound: CS(=O)(=O)Nc1ccc(-c2cnc3[nH]cc(-c4oncc4-c4cccc(F)c4F)c3c2)cc1 [Compound 98, N-(4-{3-[4-(2,3-Difluoro-phenyl)-isoxazol-5-yl]-1H-pyrrolo[2,3-b]pyridin-5-yl}-phenyl)-methane sulfonamide]

Ki (KDR): < 200 nM | Ki (c-Met): < 200 nM | Ki (GSK-3β, (AA 1-420)): 200 to 1000 nM
Compound: CC(=O)Nc1cccc(-c2cnc3[nH]cc(-c4oncc4-c4cccc(F)c4F)c3c2)c1 [Compound 65, N-(3-{3-[4-(2,3-Difluoro-phenyl)-isoxazol-5-yl]-1H-pyrrolo[2,3-b]pyridin-5-yl}-phenyl)-acetamide]

Ki (KDR): < 200 nM | Ki (c-Met): < 200 nM | Ki (GSK-3β, (AA 1-420)): < 200 nM
Compound: Fc1ccc(-c2cnc3[nH]cc(-c4oncc4-c4cccc(F)c4F)c3c2)cn1 [Compound 69, 3-[4-(2,3-Difluoro-phenyl)-isoxazol-5-yl]-5-(6-fluoro-pyridin-3-yl)-1H-pyrrolo[2,3-b]pyridine]

Ki (KDR): < 200 nM | Ki (c-Met): < 200 nM | Ki (GSK-3β, (AA 1-420)): < 200 nM
Compound: CN1CCN(c2ccc(-c3cnc4[nH]cc(-c5oncc5-c5cccc(F)c5F)c4c3)cc2)CC1 [Compound 70, 3-[4-(2,3-Difluoro-phenyl)-isoxazol-5-yl]-5-[4-(4-methyl-piperazin-1-yl)-phenyl]-1H-pyrrolo[2,3-b]pyridine methanesulfonate]

Ki (KDR): < 200 nM | Ki (c-Met): < 200 nM | Ki (GSK-3β, (AA 1-420)): 200 to 1000 nM
Compound: COc1cnc2[nH]cc(-c3oncc3-c3cccc(Cl)c3Cl)c2c1 [Compound 49, 3-[4-(2,3-Dichloro-phenyl)-isoxazol-5-yl]-5-methoxy-1H-pyrrolo[2,3-b]pyridine]

Ki (KDR): < 200 nM | Ki (c-Met): < 200 nM | Ki (GSK-3β, (AA 1-420)): < 200 nM
Compound: Fc1cccc(-c2cnoc2-c2c[nH]c3ncc(-c4ccc(N5CCNCC5)cc4)cc23)c1F [Compound 68, 3-[4-(2,3-Difluoro-phenyl)-isoxazol-5-yl]-5-(4-piperazin-1-yl-phenyl)-1H-pyrrolo[2,3-b]pyridine]

Ki (KDR): < 200 nM | Ki (c-Met): < 200 nM | Ki (GSK-3β, (AA 1-420)): < 200 nM
Compound: CN(C)C1CC=C(c2cnc3[nH]cc(-c4oncc4-c4cccc(F)c4F)c3c2)CC1 (stereo not drawn) [Compound 138, (4-{3-[4-(2,3-Difluoro-phenyl)-isoxazol-5-yl]-1H-pyrrolo[2,3-b]pyridin-5-yl}-cyclohex-3-enyl)-dimethyl-amine]

Ki (KDR): < 200 nM | Ki (c-Met): 1000 to 12500 nM | Ki (GSK-3β, (AA 1-420)): 1000 to 12500 nM
Compound: CN(C)c1ccnc(-c2cnc3[nH]cc(-c4oncc4-c4cccc(F)c4F)c3c2)c1 [Compound 80, (2-{3-[4-(2,3-Difluoro-phenyl)-isoxazol-5-yl]-1H-pyrrolo[2,3-b]pyridin-5-yl}-pyridin-4-yl)-dimethyl-amine]

Ki (KDR): < 200 nM | Ki (c-Met): < 200 nM | Ki (GSK-3β, (AA 1-420)): < 200 nM
Compound: Fc1cccc(-c2cnoc2-c2c[nH]c3ncc(/C=C/n4cncn4)cc23)c1F [Compound 133, 3-[4-(2,3-Difluoro-phenyl)-isoxazol-5-yl]-5-(2-[1,2,4]triazol-1-yl-vinyl)-1H-pyrrolo[2,3-b]pyridine]

Ki (KDR): < 200 nM | Ki (c-Met): < 200 nM | Ki (GSK-3β, (AA 1-420)): 200 to 1000 nM
Compound: CN1CCN(c2ccc(-c3cnc4[nH]cc(-c5oncc5-c5cccc(F)c5F)c4c3)cn2)CC1 [Compound 71, 3-[4-(2,3-Difluoro-phenyl)-isoxazol-5-yl]-5-[6-(4-methyl-piperazin-1-yl)-pyridin-3-yl]-1H-pyrrolo[2,3-b]pyridine]

Ki (KDR): < 200 nM | Ki (c-Met): < 200 nM | Ki (GSK-3β, (AA 1-420)): < 200 nM
Compound: O=c1ccc(-c2cnc3[nH]cc(-c4oncc4-c4cccc(F)c4F)c3c2)c[nH]1 [Compound 67, 5-{3-[4-(2,3-Difluoro-phenyl)-isoxazol-5-yl]-1H-pyrrolo [2,3-b]pyridin-5-yl}-1H-pyridin-2-one]

Reference: US7446199B2, “Compositions useful as inhibitors of protein kinases” (Vertex Pharmaceuticals Incorporated, priority 2003, dated 2008)
